Measured values reported in US9186390B2, “Methods and uses of TIE2 binding and/or activating agents” (Sunnybrook Health Sciences Center, priority 2010, dated 2015).
“Also recorded” adds a separate entry of the source.

What was measured:
[1] = system: acute asthma mice; test: Acute asthma model (ovalbumin sensitization, intranasal challenge); type: in vivo, Balb/c mice
Protocol: (Chronic asthma model) Seven week old female Balb/c mice were injected intraperitoneally (IP) with 20 μg of chicken ovalbumin (OVA) absorbed with 1 mg aluminum hydroxide, an adjuvant known to promote the development of a Th2 response by the immune system, on day 0 (denoted by first day injection) and day 7. Full body inhaled exposure to OVA was initiated at day 21. Briefly, these treatments utilized an InExpose full body aerosol chamber (Scireq, Montreal, Canada) where a 1% OVA solution, suspended in PBS, pH 7.45, was nebulized at 0.2 mL/min with a filtered room air flow rate of 2400 mL/min for a total period of 30 minutes, 3 times a week for either 42 (FIG. 13A) or 62 days (FIG. 13B). (Acute asthma model) Seven week old female Balb/c mice were injected intraperitoneally with 50 μg of chicken OVA absorbed with 1 mg aluminum hydroxide on day 0 (denoted by first day injection) and day 7. Aqueous OVA ([…] in PBS) was delivered intranasally daily from day 20 to day 24 (FIG. 2), Vasculotide or saline vehicle (control, PBS) was delivered to the mice via IP injections.
Blood was collected from the left ventricle of anaesthetized mice into heparinized 1 cc syringes. Following collection, blood was placed into Li-heparin microtubes. Subsequently, the tubes were centrifuged at 3000 RPM for 15 minutes at 4° C. Plasma was collected from the top of the samples and frozen at −80° C. for later analysis. The remaining buffy coat and red blood cells were lysed then fixed in 1× lyse/fix buffer (BD Biosciences, Mississauga, Canada) according to manufacturer's instructions.
Twenty-four hours after last aerosol exposure and immediately following exsanguinations, tissue was dissected from neck to expose trachea. A small lateral incision was made in the trachea to allow passage of 23 gauge lavage catheter into trachea. The catheter, attached to a 3 cc syringe containing warmed Hanks buffer, was carefully passed into the lumen of the trachea. A suture was secured around the trachea with a knot to secure the catheter in place. Buffer (1 cc) was injected slowly into the lungs and fully aspirated three times. The volume of recovered buffer was recorded for each animal to facilitate calculation of BAL infiltrate.
Analysis of plasma samples generated for the asthma study was the same as that outlined for the atopic dermatitis study with one small modification. Plasma from mice used in the asthma study was diluted 1:4 instead of 1:8 for the atopic dermatitis samples.
(BAL analysis) Collected BAL fluid was centrifuged at 1000 RPM for 10 minutes at 4° C. BAL fluid was removed and collected for subsequent CBA analysis. The BAL cell pellet was lysed/fixed in 1× lyse/fix buffer according to manufacturer's instructions (BD Biosciences, Mississauga, Canada). The total number of cells contained in each sample was determined by flow cytometry using flow-set beads (Count Bright Beads, Invitrogen), to facilitate sample volume and cell count calculations. A total of 7000 beads were counted for each sample. Flow cytometry analysis was gated on FSC/SSC to eliminate debris and dead cells. Differential cell count analysis was also performed by FACS where surface marker antibodies were used as follows: eosinophils (SSC^hi FITCmed Ige^med), neutrophils (SSC^med FITC^hi Ige^med), monocytes (SSC^med CD11b^+ CD115^+) and lymphocytes (SSC^lo and CD4^+ or CD8^+). In addition to monocyte markers (SSC^med CD11b^+ CD115^+), these cell populations were further characterized using antibodies specific for Tie2, TLR4, and Ly6C. Ly6C^low and Ly6C^high further define monocytes as classical, resident monocytes or inflammatory monocytes, respectively. Identified neutrophils were further labelled with antibodies to Tie2 and TLR4. All cell suspensions were incubated with purified anti-CD16/CD32 mAb (BD Biosciences, Mississauga, ON, Canada) to block non-specific background caused by Fc receptors, followed by incubation with the specific antibodies. […]

[2] = Vasculotide-specific ELISA of circulating Vasculotide in mouse plasma; type: in vivo, CD1 mice; settings: for circulating level in plasma after oral delivery: 2 μg P.O. (gavage)
Text: Several monoclonal antibodies have been raised against the modified T7 peptide. These antibodies have been extensively validated and used to develop an ELISA which is capable of measuring picogram quantities of Vasculotide in mouse plasma or serum. There is an excellent linear relationship between ELISA signal and Vasculotide concentration with little interference from mouse plasma/serum proteins (FIG. 1C).
The developed ELISA was used to track circulating levels of Vasculotide in the plasma of mice over time. […] The incongruence of these findings is likely due to a paucity of sensitivity in the ELISA-based detection of Vasculotide.

Substance: Vasculotide: Modified T7 peptide (CHHHRHSF, SEQ ID NO:2) conjugated to 10 kDa tetrameric polyethylene glycol-maleimide; Tie2 binding peptide mimetic
- classical monocytes (Ly6C−) in BAL ([1]; acute asthma, d24): increased
- number of peripheral blood mononuclear cells ([1]; acute asthma, d24): prevented a significant increase
- plasma IL-4 (cytometric bead array) ([1]; acute asthma, d24): decreased
- plasma IL-5 (cytometric bead array) ([1]; acute asthma, d24): decreased
- plasma IL-13 (cytometric bead array) ([1]; acute asthma, d24): decreased
- plasma MCP-1 (cytometric bead array) ([1]; acute asthma, d24): decreased
- plasma MIP1α (cytometric bead array) ([1]; acute asthma, d24): decreased
- plasma MIP1β (cytometric bead array) ([1]; acute asthma, d24): decreased
- plasma RANTES (cytometric bead array) ([1]; acute asthma, d24): decreased
- plasma TNF (cytometric bead array) ([1]; acute asthma, d24): decreased
- inflammatory monocytes (Ly6C+) in BAL ([1]; acute asthma, d24, vs PBS asthmatic controls): significantly fewer; also recorded: decreased
- BAL eosinophil absolute counts ([1]; acute asthma, day 24): reduced; also recorded: statistical reduction
- BAL number of lymphocytes ([1]; acute asthma, day 24): did not affect; also recorded: non-statistical trend towards decreased
- BAL number of monocytes ([1]; acute asthma, day 24): did not affect
- BAL number of neutrophils ([1]; acute asthma, day 24): did not affect; also recorded: non-statistical trend towards decreased
- reduction of total absolute BAL counts ([1]; acute asthma, systemic (IP) treatment, flow cytometry): 25%
- BAL cell numbers in the absence of asthma ([1]; non-asthmatic mice): no effect
- time up to which significant levels of circulating Vasculotide are detected by ELISA ([2]; 2 μg I.P., p=0.0149 PBS vs Vasc): up to 24 hours
- circulating level in plasma after oral delivery [2]: no significant levels
- circulating level in plasma after oral delivery ([2]; listed as Vasc-PEG): did not result in any detectable levels
- circulating level in plasma at 24 hours post injection ([2]; I.P., unpaired student t-test vs PBS): statistically detectable level
